Measured values: patent US5561228A, “Macrocyclic immunomodulators” (Abbott Laboratories, priority 1994, dated 1996)

Test system: human mixed lymphocyte reaction (MLR)
Experiment: human mixed lymphocyte reaction (MLR) assay
Assay type: cell-based
Details: immunosuppressant activity, Table 1
Description: The immunosuppressant activity of the compounds of the present invention was determined using the human mixed lymphocyte reaction (MLR) assay described by Kino, T. et al. in Transplantation Proceedings, XIX(5):36-39,Suppl. 6 (1987).

Row | SMILES | IC50 [nM]
1 | CC[C@@H]1/C=C(\C)C[C@H](C)C[C@H](OC)[C@H]2O[C@@](O)(C(=O)C(=O)N3CCCC[C@H]3C(=O)O[C@H](/C(C)=C/[C@@H](CC=NOCC(=O)O)CCC#N)[C@H](C)[C@@H](O)CC1=O)[C@H](C)C[C@@H]2OC [Example 421] | < 1000
2 | CC[C@@H]1/C=C(\C)C[C@H](C)C[C@H](OC)[C@H]2O[C@@](O)(C(=O)C(=O)N3CCCC[C@H]3C(=O)O[C@H](/C(C)=C/[C@@H](CCO)CCC#N)[C@H](C)[C@@H](O)CC1=O)[C@H](C)C[C@@H]2OC [Example 425] | < 1000
3 | CC[C@@H]1/C=C(\C)C[C@H](C)C[C@H](OC)[C@H]2O[C@@](O)(C(=O)C(=O)N3CCCC[C@H]3C(=O)O[C@H](/C(C)=C/[C@@H](CC=NO)CCC#N)[C@H](C)[C@@H](O)CC1=O)[C@H](C)C[C@@H]2OC [Example 419] | < 1000
4 | CC[C@@H]1/C=C(\C)C[C@H](C)C[C@H](OC)[C@H]2O[C@@](O)(C(=O)C(=O)N3CCCC[C@H]3C(=O)O[C@H](/C(C)=C/[C@@H](CC=NN(C)C)CCC#N)[C@H](C)[C@@H](O)CC1=O)[C@H](C)C[C@@H]2OC [Example 417] | < 1000
